Measured values published in BindingDB's records for doi:10.1016/s0960-894x(01)00038-5 (Glaxosmithkline, 2001).

Target: Lipoprotein-associated phospholipase A2 (Rattus norvegicus)
Test: Concentration required for inhibition ofLipoprotein associated phospholipase A2 in rat at dose 2 umol/kg/h

IC50: 533 nM
SMILES: CCCCCCCCCCCCN(C)C(=O)Cn1cc(Cc2cnc(=O)n(CC(=O)O)c2)c(=O)nc1SCc1ccc(F)cc1 [{5-[1-[(Dodecyl-methyl-carbamoyl)-methyl]-2-(4-fluoro-benzylsulfanyl)-4-oxo-1,4-dihydro-pyrimidin-5-ylmethyl]-2-oxo-2H-pyrimidin-1-yl}-acetic acid]
